Test results taken from patent publication US7601687B2, “Mechanism for identifying drugs for the treatment of type II diabetes” (BioCrine AB, priority 2006, dated 2009).

Columns and labels:
βGK mRNA [1] = test: βGK mRNA steady-state levels (comparative RT-PCR) in cultured pancreatic islets / insulin-producing cells; type: cell-based, rat
Protocol: Insulin-producing HIT-T15 cells were obtained from ATCC. HIT cells were reported to show glucose responsiveness at subphysiological concentrations between 0.1 and 2 mM (Sharma et al., 1995). HIT cells were grown in RPMI 1640 medium supplemented with 100 units/ml penicillin, 100 μg/ml streptomycin, 2 mM glutamine and 10% fetal calf serum at 5% CO2 and 37° C. Pancreatic islets were isolated from normally fed male Wistar rats and from mice by collagenase digestion. Isolated islets were incubated overnight at 5% CO2 and 37° C. in RPMI 1640 medium, supplemented as described above. Transfection of HIT-T15 and islet cells was performed overnight by the lipofectamine technique in RPMI 1640 medium, without serum and antibiotics. For on-line monitoring, cells were grown and transfected on 24-mm glass coverslips. Following transfection, HIT cells were cultured for 12-18 h in RPMI 1640 medium containing 0.1 mM glucose, 10% fetal calf serum and supplemented as above. Before stimulation, islets and islet cells were incubated for 2 h in RPMI 1640 medium, supplemented as above but containing 3 mM glucose. All expression constructs were prepared using the Qiagen Plasmid Maxi Kit (Qiagen), except those used to produce the adenoviruses which where purified by ultracentrifugation via a CsCI-gradient (as described in Sambrook et al, 1989).
All experiments were performed in RPMI 1640 medium, supplemented as above. Protein kinase inhibitors, antibodies or nifedipine were added to the culture medium 30 min prior to stimulation and were kept in the medium throughout stimulation. After stimulation islets, islet cells and HIT cells were cultured further at substimulatory glucose concentrations (0.1 mM for HIT cells and 3 mM for islets and islet cells). For RNA-analysis, islets and cells were harvested 60 min after start of stimulation, if not indicated otherwise. For analysis of protein kinase activities or tyrosine phosphorylation, cells were harvested immediately following stimulation.
RNA Analysis Levels of βGK mRNA were analyzed by RNase-protection assays and comparative RT-PCR. […] Quantification of the protected complexes was performed by phosphorimaging. […] Levels of μGK mRNA were analyzed by RT-PCR using primers 5′-[…]-3′(SEQ ID NO: 1) and 5′-[…]-3′(SEQ ID NO: 2) for characterizing μGK mRNA in HIT cells and primers 5′-[…]-3′(SEQ ID NO: 3) and 5′-[…]-3′(SEQ ID NO: 4) for μGK mRNA in rat and mouse pancreatic islets and islet cells. Levels of μ-actin mRNA were analyzed by RT-PCR using primers 5′-[…]-3′(SEQ ID NO: 5) and 5′-[…]-3′(SEQ ID NO: 6). […] PCR products were separated on a 6% polyacrylamide sequencing gel and analyzed by phosphorimaging. […]

insulin mRNA = test: Endogenous insulin mRNA levels in isolated islets of wild type and βIRKO mice; type: cell-based, mouse; details: 16.7 mM glucose or 5 mU insulin/ml
Protocol: (§1) RNA was prepared 60 min after start of stimulation. Amounts of insulin, βGK and β-actln mRNA were quantified by comparative RT-PCR. […] Data are shown as mean values ± S.E. (n=3). (B-D) On-line monitoring of βGK promoter-driven GFP expression (white bars) and insulin promoter-driven DsRed expression (black bars) in co-transfected HIT cells (B,C) or islet cells (B,D).
(§2) Insulin-producing HIT-T15 cells were obtained from ATCC. HIT cells were reported to show glucose responsiveness at subphysiological concentrations between 0.1 and 2 mM (Sharma et al., 1995). HIT cells were grown in RPMI 1640 medium supplemented with 100 units/ml penicillin, 100 μg/ml streptomycin, 2 mM glutamine and 10% fetal calf serum at 5% CO2 and 37° C. Pancreatic islets were isolated from normally fed male Wistar rats and from mice by collagenase digestion. […]
(§3) RNA Analysis Levels of βGK mRNA were analyzed by RNase-protection assays and comparative RT-PCR. […] Quantification of the protected complexes was performed by phosphorimaging. […] Levels of μGK mRNA were analyzed by RT-PCR using primers 5′-[…]-3′(SEQ ID NO: 1) and 5′-[…]-3′(SEQ ID NO: 2) for characterizing μGK mRNA in HIT cells and primers 5′-[…]-3′(SEQ ID NO: 3) and 5′-[…]-3′(SEQ ID NO: 4) for μGK mRNA in rat and mouse pancreatic islets and islet cells. Levels of μ-actin mRNA were analyzed by RT-PCR using primers 5′-[…]-3′(SEQ ID NO: 5) and 5′-[…]-3′(SEQ ID NO: 6). […]

βGK mRNA [2] = test: Endogenous βGK mRNA levels in isolated islets of wild type and βIRKO mice; type: cell-based, mouse; details: 16.7 mM glucose or 5 mU insulin/ml
Protocol: as §1, §2, §3

Row | Substance | effect of inhibitor on insulin-stimulated βGK mRNA steady-state levels (βGK mRNA [1]; 5 mU/ml insulin, 400 nM AC, FIG. 5B) | exogenous insulin sufficient to evoke βGK mRNA levels (βGK mRNA [1]; pancreatic islets, fully supplemented culture medium, substimulatory glucose) [μU insulin per ml] | endogenous insulin mRNA levels upon stimulation (insulin mRNA; islets from βIRKO mice) | endogenous insulin mRNA levels upon stimulation (insulin mRNA; islets of wild type mice) | endogenous βGK mRNA levels upon stimulation (βGK mRNA [2]; islets from βIRKO mice) | endogenous βGK mRNA levels upon stimulation (βGK mRNA [2]; islets of wild type mice)
1 | autocamtide-2 related inhibitory peptide | altered neither |  |  |  |  | 
2 | insulin |  | 50 | no increase | increase | no increase | increase
